Experimental data as given in patent publication US7510825B2, “Kits and methods for detection of apoptotic cells” (NST NeuroSurvival Technologies Ltd, priority 2000, dated 2009).

Key:
[1] = test system: neurons of the ischemic region; test: Detection by DDC of permanent ischemia by MCA cauterization; assay type: in vivo, mice; conditions: DDC i.v. 22 hours from the insult; adjacent slides
Procedure: (§1) A. Administration of DDC in-vivo: Injection of 200 μl of DDC intravenously. Following 1-2 hours, animal is sacrificed, and the desired organ is placed in a test tube or on a small plate, suitable for liquid nitrogen freezing. The plate is then covered with an aluminum foil, and transferred to liquid nitrogen. Following 5-30 minutes the specimen is being frozen to −80° C. and kept at −80° C. for at least 16 hr. B. Analysis of the Specimen: • a. Whole organ imaging Ex-vivo whole organ fluorescence imaging may be carried out on freshly excised specimen, that can be analyzed under a stereomicroscope (such as Leica MZ FL III, Leica Switzerland). DDC may be visualized using 360cx and >420cm nm filter set. Emitted fluorescence can be imaged using appropriate camera and software, such as a Leica DC 300F Distal camera and images can be processed and analyzed by Leica QWin Lite software. • b. Histological analysis, from the frozen organ or tissue, 4 μm cryosections are prepared on slides. Analysis of the tissue sections can be performed using a fluorescence microscope with a UV filter characterized by excitation at 360-370 nm (band pass) and emission at 420 nm (barrier filter) In case that staining of the examined tissue is desired, the following procedures can be applied:
A permanent ischemia by MCA cauterization was induced in Balb/c mice (Harlan laboratories). […]

[2] = test system: renal tubular cells, ischemic kidney; test: Renal cell injury (ischemia-reperfusion) detection by DDC; assay type: in vivo, rats
Procedure: as §1, with “applied: […]” for “applied:”

[3] = test system: L5178-S (LY-S) murine lymphoma tumors; test: Detection by DDC of tumor cell apoptosis in lymphoma-bearing mice after Taxol; assay type: in vivo; conditions: Taxol 20 mg/kg treated vs control animals; DDC i.v. 24 h after Taxol, sacrifice 2 h later
Procedure: as §1, with “applied: […]” for “applied:”

C6-Glioma tumor = test: Accumulation of DDC in apoptotic cells of glioma following irradiation; assay type: in vivo, mice; conditions: 20 h after radiation (6 gray)
[4] = test system: C26 colon carcinoma cells; test: Time course of DDC binding to C26 colon carcinoma cells treated with BiCNU; assay type: cell-based; conditions: 0.5 mM BiCNU for 2 hr
Procedure: For microscopic analysis the concentration of cells should be within 1-2×10^7/ml. […] If fixation is needed, it should be performed after DDC staining. • 1. Adjusting the cells to 1-2×10^7/ml in buffer. • 2. Transferring 96 μl from the cell suspension to an eppendorf and staining the cells by adding 4 μl from the DDC solution. Incubating for 10-40 minutes at RT protected from light. • 3. A double labeling could be conducted with PI, if desired. In such a case, 1 μl is added from the PI solution. • 4, Placing the cell suspension on a glass slide. Covering the cells with a glass coverslip. Alternatively, for analyzing adherent cells, cells may grow directly on coverslip. Staining the cells by incubation with DDC (4 μl of DDC/96 μl buffer reaction) or 10-40 minutes and PI (1 μl). Covering the slide with a coverslip and visualizing the cells. If desired, at that point the cells can be washed and fixed in 1% formaldehyde before visualization. Mounting should be done in a solution of 50% glycerol/PBS (v/v). • 5. Observing the cells under fluorescent or confocal microscope equipped with the appropriate UV filter (excitation at 360-370 nm, band pass, and emission at 420 nm, barrier filter. Using a Triple filter (Hoechst/FITC/Texas Red) allows concomitant observation of both DDC and PI. Quantitative Assay for DDC Accumulation using Fluorescene Spectroscopy […]

[5] = test system: Jurkat cells (T-cell leukemia); test: Binding of DDC and PI to Jurkat cells treated with CD95, confocal microscopy; assay type: cell-based, human; conditions: CD95 for 180 minutes; confocal microscope
Procedure: For microscopic analysis the concentration of cells should be within 1-2×10^7/ml. […] If fixation is needed, it should be performed after DDC staining. • 1. Adjusting the cells to 1-2×10^7/ml in buffer. • 2. Transferring 96 μl from the cell suspension to an eppendorf and staining the cells by adding 4 μl from the DDC solution. Incubating for 10-40 minutes at RT protected from light. • 3. A double labeling could be conducted with PI, if desired. In such a case, 1 μl is added from the PI solution. • 4, Placing the cell suspension on a glass slide. Covering the cells with a glass coverslip. Alternatively, for analyzing adherent cells, cells may grow directly on coverslip. Staining the cells by incubation with DDC (4 μl of DDC/96 μl buffer reaction) or 10-40 minutes and PI (1 μl). […] Observing the cells under fluorescent or confocal microscope equipped with the appropriate UV filter (excitation at 360-370 nm, band pass, and emission at 420 nm, barrier filter. Using a Triple filter (Hoechst/FITC/Texas Red) allows concomitant observation of both DDC and PI. Quantitative Assay for DDC Accumulation using Fluorescene Spectroscopy
Jurkat cells (T-cell leukemia) were treated with CD95 for 180 minutes and incubated with DDC followed by incubation with Propidium Iodide (PI) as detailed in DDC protocols IIIC. The cells were analyzed under fluorescent confocal microscope using a UV filter. […]

BCL1 bone marrow cells = test: Detection by DDC of apoptosis in BCL1 bone marrow cells following chemotherapy; assay type: in vivo, mice
Procedure: as §1, with “applied: […]” for “applied:”

Compound: CN(C)c1cccc2c(S(=O)(=O)NC(CSSCC(NS(=O)(=O)c3cccc4c(N(C)C)cccc34)C(=O)O)C(=O)O)cccc12 (stereo not shown) [DDC]
- correlation of DDC staining of single neurons with H&E staining [1]: high correlation with H&E staining
- DDC uptake, ischemic kidney compared with control kidney ([2]; 45 min renal artery clamping, DDC 20 h after reperfusion, ex-vivo whole organ fluorescence imaging): Significant increase in DDC uptake
- DDC staining versus TUNEL staining ([2]; kidney sections after ischemia-reperfusion): Several cells were stained with DDC but were negative for TUNEL staining
- DDC uptake into tumors [3]: marked increase of DDC uptake
- binding to viable tumor cells or normal brain tissue (C6-Glioma tumor): not binding
- labeling of cells undergoing cell death within the glioma tumor (C6-Glioma tumor): specifically and selectively labeled cells undergoing cell death
- time to staining of apoptotic cells [4]: ≤ 40 s
- cellular staining pattern in apoptotic cells [5]: accumulated within the cytoplasm of early and late apoptotic cells
- fluorescent labeling of bone marrow cells (BCL1 bone marrow cells; 24 hr following Cyclophosphamide 300 mg/kg and Taxol 20 mg/kg): a significant number of apoptotic/necrotic cells are labeled
- fluorescent labeling of bone marrow cells (BCL1 bone marrow cells; non-treated group): no fluorescent labeling
